Measurements from patent US11253497B2, “Use of derivatives of polyunsaturated fatty acids as medicaments” (Lipopharma Therapeutics, S.L., priority 2009, dated 2022).

Assays:
[1] = Lamellar-to-hexagonal (HII) transition temperature in DEPE model membranes by Differential Scanning Calorimetry; assay type: physicochemical; settings: DEPE membranes, DEPE:D-PUFA 10:1 (mol:mol)
Experimental: The transition temperature was determined by Differential Scanning Calorimetry. The proportion DEPE:D-PUFA was 10:1 (mol:mol) in all cases. Lamellar-to-hexagonal transition is an important parameter that reflects relevant signalling properties of cell membranes. […] When this occurs, certain peripheral membrane proteins (such as G proteins, protein kinase C or Ras protein) can more easily bind to the membrane, while others have a poor interaction (e.g., the Gα-protein), so changes in the HII transition temperature are important in regulating cellular functions related to health and human therapy (Escriba et al., 1995, Vogler et al., 2004; Escriba, 2006).
Control values correspond to model membranes in the absence of fatty acids. The reduction in HII transition temperature obtained by using the D-PUFA of the invention indicates an increased induction of membrane discontinuities, generating anchoring sites in the membrane for peripheral proteins and leads to better regulation of cell signalling and, therefore, greater effectiveness in the control of certain diseases.

[2] = tested on: breast cancer cells MDA-MB-231; experiment: Growth of breast cancer cells MDA-MB-231; assay type: cell-based; settings: 72 hours of incubation
Experimental: (§1) For the experiments shown in FIG. 1, cultured human Non Small Cell Lung Cancer cells (A549) in RPMI 1640 were used, supplemented with 10% foetal bovine serum and antibiotics, at 37° C. and 5% CO2. […] After treatment, cell count was performed and the study of the mechanisms involved in the antitumor activity of compounds was evaluated by flow cytometry. […] These values correspond to averages of three independent experiments.
(§2) These charts show the antitumor efficacy of the compounds of this invention against the growth of breast cancer cells, brain (glioma), and lung cancer. […] The other experimental conditions are identical to those described in the preceding paragraph.

[3] = tested on: brain cancer cell (glioma) U118; experiment: Brain cancer (glioma) U118 cell growth; assay type: cell-based; settings: 72 hours of incubation
Experimental: For the experiments shown in FIG. 1, cultured human Non Small Cell Lung Cancer cells (A549) in RPMI 1640 were used, supplemented with 10% foetal bovine serum and antibiotics, at 37° C. and 5% CO2. Cells were maintained in culture for 48 hours in the presence or absence of D-PUFAs and PUFAs indicated in Table 2 at a concentration of 250 µM. After treatment, cell count was performed and the study of the mechanisms involved in the antitumor activity of compounds was evaluated by flow cytometry. […] These values correspond to averages of three independent experiments.
as §2

lung cancer cells A549 = experiment: Growth of lung cancer cells A549 (IC50); assay type: cell-based, human; settings: 72 hours of incubation
Experimental: as §1, §2

[4] = tested on: Spontaneously Hypertensive Rats (SHR); experiment: Blood pressure of SHR rats (cuff-tail method); assay type: in vivo, rat; settings: 200 mg/kg day p.o., 30 days, before treatment 214 mmHg
Experimental: (§3) In a separate experimental series, it was studied the effect of D-PUFA molecules of the present invention on blood pressure of SHR rats. In these animals both, blood pressure and levels of apolipoprotein AI (apoA-I) were measured. For these experiments Spontaneously Hypertensive Rats (SHR) were treated for 30 days with vehicle (water control) or compounds of the invention (200 mg/kg day, p.o.). At the end of this period, the animals' blood pressure and serum levels of apoA-I were measured. […] For these experiments, non-invasive methods for determining blood pressure (cuff-tail method) and gene expression for apoA-I (RT-PCR) described in the literature (Terés et al., 2008) were used. The usefulness of the molecules of the present invention for the treatment of cardiovascular diseases is reinforced by its capacity for reducing the levels of serum cholesterol and triglycerides (see below).
(§4) The average values of SHR before treatment were 214 mmHg and 100% respectively.

[5] = tested on: apolipoprotein AI (apoA-I); experiment: Levels of apoA-I in SHR rats (RT-PCR); assay type: in vivo, rat; settings: 200 mg/kg day p.o., 30 days, before treatment 100%
Experimental: as §3, §4

[6] = Serum cholesterol, triglycerides and glucose in SHR rats (colorimetric); assay type: in vivo, rat; settings: 200 mg/kg daily p.o., 28 days, untreated rats 100%
Experimental: In a separate experimental series, SHR rats were treated with various compounds of the present invention (200 mg/kg daily, 28 days, p.o.) and the levels of cholesterol, triglycerides and glucose in serum were measured by colorimetric methods. It was observed that these compounds induce significant (and in many cases marked) reductions in the levels of these metabolites (Table 16).
Values are expressed as percent, and in untreated (control) rats values were always considered as 100%.

Structure (SMILES) | Temperature of lamellar-to-hexagonal transition [1] | IC50 [2] | IC50 [3] | IC50 (lung cancer cells A549) | Blood pressure [4] | Levels of apoA-I [5] | Cholesterol in serum (top number) [6] | Glucose in serum (bottom number) [6] | Triglycerides in serum (central number) [6]
CCCCCC=CCC=CCCCCCCC(O)C(=O)OC (stereo not drawn) [182D1] | 51 °C | 277 µM | 221 µM | 541 µM | – | – | – | – | –
CCCCCC=CCC=CCCCCCCC(O)C(=O)OCC (stereo not drawn) [182E1] | 50.6 °C | 289 µM | 213 µM | 387 µM | – | – | – | – | –
CCCCCC=CCC=CCCCCCCC(OC)C(=O)O (stereo not drawn) [182G1] | 51 °C | 378 µM | 205 µM | 439 µM | – | – | – | – | –
CCCCCC=CCC=CCCCCCCC(C)C(=O)OCC (stereo not drawn) [182N1] | – | 297 µM | 247 µM | 329 µM | 187 mm Hg | 159% | 92% | 90% | 93%
CCCCCC=CCC=CCCCCCCC(CO)C(=O)O (stereo not drawn) [182P1] | – | 419 µM | – | 328 µM | 202 mm Hg | 184% | – | – | –
CCCCCC=CCC=CCCCCCCC(OP(=O)(OCC)OCC)C(=O)OCC (stereo not drawn) [182R1] | 52.2 °C | 371 µM | 255 µM | 317 µM | – | – | – | – | –
CCCCCC=CCC=CCC=CCCCC(O)C(=O)OC (stereo not drawn) [183D2] | 49.4 °C | 175 µM | 385 µM | 267 µM | – | – | – | – | –
CCC=CCC=CCC=CCCCCCCC(OC)C(=O)O (stereo not drawn) [183G1] | 50.3 °C | 364 µM | 329 µM | 273 µM | – | – | – | – | –
CCCCCC=CCC=CCC=CCCCC(OC)C(=O)O (stereo not drawn) [183G2] | 50.1 °C | 159 µM | 394 µM | 295 µM | – | – | – | – | –
CCC=CCC=CCC=CCCCCCCC(C)C(=O)OCC (stereo not drawn) [183N1] | – | 278 µM | 324 µM | 379 µM | 208 mm Hg | 189% | 72% | 84% | 69%
CCCCCC=CCC=CCC=CCCCC(C)C(=O)OCC (stereo not drawn) [183N2] | – | 186 µM | 385 µM | 255 µM | 194 mm Hg | 296% | 89% | 92% | 85%
CCC=CCC=CCC=CCCCCCCC(Cl)C(=O)OCC (stereo not drawn) [183O1] | 51.2 °C | 267 µM | 370 µM | 344 µM | – | – | – | – | –
CCC=CCC=CCC=CCCCCCCC(CO)C(=O)O (stereo not drawn) [183P1] | – | 349 µM | 285 µM | 317 µM | 201 mm Hg | 178% | – | – | –
CCCCCC=CCC=CCC=CCCCC(CO)C(=O)O (stereo not drawn) [183P2] | – | 214 µM | 389 µM | 272 µM | 187 mm Hg | 347% | – | – | –
CCC=CCC=CCC=CCCCCCCC(OP(=O)(OCC)OCC)C(=O)OCC (stereo not drawn) [183R1] | 51.8 °C | 305 µM | 307 µM | 258 µM | – | – | – | – | –
CCCCCC=CCC=CCC=CCCCC(OP(=O)(OCC)OCC)C(=O)OCC (stereo not drawn) [183R2] | 49.9 °C | 172 µM | 454 µM | 274 µM | – | – | – | – | –
CCCCCC=CCC=CCC=CCC=CCCC(O)C(=O)OC (stereo not drawn) [204D1] | 48.7 °C | 281 µM | 311 µM | 372 µM | – | – | – | – | –

Structure (SMILES) | Temperature of lamellar-to-hexagonal transition [1] | IC50 [2] | IC50 [3] | IC50 (lung cancer cells A549) | Blood pressure [4] | Levels of apoA-I [5] | Cholesterol in serum (top number) [6] | Glucose in serum (bottom number) [6] | Triglycerides in serum (central number) [6]
CCCCCC=CCC=CCC=CCC=CCCC(O)C(=O)OCC (stereo not drawn) [204E1] | 48.4 °C | 299 µM | 224 µM | 475 µM | – | – | – | – | –
CCCCCC=CCC=CCC=CCC=CCCC(OC)C(=O)O (stereo not drawn) [204G1] | 49.6 °C | 372 µM | 342 µM | 427 µM | – | – | – | – | –
CCCCCC=CCC=CCC=CCC=CCCC(C)C(=O)OCC (stereo not drawn) [204N1] | – | 274 µM | 315 µM | 420 µM | 201 mm Hg | 174% | 82% | 82% | 81%
CCCCCC=CCC=CCC=CCC=CCCC(CO)C(=O)O (stereo not drawn) [204P1] | – | 370 µM | 291 µM | 387 µM | 203 mm Hg | 153% | – | – | –
CCCCCC=CCC=CCC=CCC=CCCC(OP(=O)(OCC)OCC)C(=O)OCC (stereo not drawn) [204R1] | 50 °C | 285 µM | 501 µM | 364 µM | – | – | – | – | –
CCC=CCC=CCC=CCC=CCC=CCCC(O)C(=O)OC (stereo not drawn) [205D1] | 47.5 °C | 2 µM | 467 µM | 364 µM | – | – | – | – | –
CCC=CCC=CCC=CCC=CCC=CCCC(O)C(=O)OCC (stereo not drawn) [205E1] | 46.7 °C | 284 µM | 513 µM | 413 µM | – | – | – | – | –
CCC=CCC=CCC=CCC=CCC=CCCC(OC)C(=O)O (stereo not drawn) [205G1] | 47.3 °C | 219 µM | 426 µM | 407 µM | – | – | – | – | –
CCC=CCC=CCC=CCC=CCC=CCCC(C)C(=O)OCC (stereo not drawn) [205N1] | – | 289 µM | 513 µM | 384 µM | 189 mm Hg | 293% | 80% | 86% | 73%
CCC=CCC=CCC=CCC=CCC=CCCC(Cl)C(=O)OCC (stereo not drawn) [205O1] | 48.6 °C | 264 µM | – | 418 µM | – | – | – | – | –
CCC=CCC=CCC=CCC=CCC=CCCC(CO)C(=O)O (stereo not drawn) [205P1] | – | 301 µM | 432 µM | 339 µM | 194 mm Hg | 337% | – | – | –
CCC=CCC=CCC=CCC=CCC=CCCC(OP(=O)(OCC)OCC)C(=O)OCC (stereo not drawn) [205R1] | 48.4 °C | 245 µM | 468 µM | 417 µM | – | – | – | – | –
CCC=CCC=CCC=CCC=CCC=CCC=CCC(O)C(=O)OC (stereo not drawn) [226D1] | 43.9 °C | 224 µM | 241 µM | 221 µM | – | – | – | – | –
CCC=CCC=CCC=CCC=CCC=CCC=CCC(O)C(=O)OCC (stereo not drawn) [226E1] | 42.9 °C | 207 µM | 265 µM | 209 µM | – | – | – | – | –
CCC=CCC=CCC=CCC=CCC=CCC=CCC(OC)C(=O)O (stereo not drawn) [226G1] | 44.1 °C | 213 µM | 278 µM | 273 µM | – | – | – | – | –
CCC=CCC=CCC=CCC=CCC=CCC=CCC(CO)C(=O)O (stereo not drawn) [226P1] | – | 250 µM | 290 µM | 291 µM | 193 mm Hg | 382% | – | – | –
